Reference: patent US5880099A, “Inositol polyphosphates and methods of using same” (The Regents of the University of California, priority 1997, dated 1999)
Entries after “also recorded” stand apart in the source; their conditions may differ.

Columns and labels:
[1] = system: colonic epithelial T84 cells (calcium-mediated chloride ion secretion); experiment: Inhibition of calcium-mediated chloride ion secretion (Table I summary); assay type: cell-based, human; settings: pathway: Ins (3,4,5,6)P4
Source text: The invention provides compounds that are agonists or antagonists of inositol polyphosphates. Inositol polyphosphate derivatives can function as inositol polyphosphate agonists and antagonists. The effects of compounds of the invention on Ins(3,4,5,6)P4 - and PtdInsP3 -mediated inhibition of calcium-mediated chloride ion secretion are described in the Examples and summarized in Table I.
(§1) Enantiomerically pure 1,2-Bt2 -Ins(3,4,5,6)P4 /AM was synthesized to determine if 1,2-Bt2 -Ins(3,4,5,6)P4 /AM mediates the uncoupling of chloride ion secretion from intracellular calcium concentrations. T84 cells (passages 18-48) were maintained as described previously (Weymer, et al., J. Clin. Invest. 76:1828 (1985)), which is incorporated herein by reference. After 7-10 days of incubation on SNAP-WELLS (Corning Costar; Cambridge, Mass.), monolayers had formed tight junctions. Cell monolayers were preincubated with 100, 200 or 400 μM Bt2 -Ins(3,4,5,6)P4 /AM for 30 min prior to mounting. After an additional 30 min, 0.1 mM histamine was added and chloride ion secretion was monitored. Chloride ion secretion was measured as short circuit current (Isc) across T84 monolayers grown to confluence and mounted in Ussing chambers equipped with voltage clamps (Physiologic Instruments; San Diego, Calif.). Data was acquired and analyzed using "Acquire and Analyze" software (Physiologic Instruments).

[2] = system: T84 cells (histamine-stimulated chloride ion secretion); experiment: Histamine-stimulated chloride ion secretion (short circuit current) in T84 monolayers; assay type: cell-based, human; settings: for effect on histamine-stimulated / calcium-mediated chloride ion secretion (in words): T84 cells
Description: as §1, with “T84 cells (passages 18-48) were maintained as described previously (Weymer, et al., J. Clin. Invest. 76:1828 (1985)), which is incorporated herein by reference.” left out
(§2) Initial studies were directed towards understanding structural determinants of Ins(3,4,5,6)P4 responsible for the inhibitory effect on calcium-mediated chloride ion secretion. A series of cell permeable inositol polyphosphate derivatives were synthesized. These derivatives contained either one or two non-hydrolyzable chemical groups on the 1, 2 or 3 position. T84 monolayers were preincubated for 30 minutes with 200 μM of 2-Bt-1-Me-Ins(3,4,5,6)P4 /AM, Me2 -Ins(3,4,5,6)P4 /AM, Me2 -Ins(1,4,5,6)P4 /AM or 2-Bt-3-Me-Ins(1,4,5,6)P4 /AM.
(§3) Following the incubation, cells were mounted in Ussing chambers. Calcium-mediated chloride ion secretion was stimulated with histamine (10^-4 M). Control values were the response to histamine in coincubated monolayers. Data are represented as mean peak ΔIsc ±SEM, expressed as % control for 8 to 10 experiments. Significant differences were identified using the Student's two-tailed t test.

[3] = system: T84 cells (Ins(3,4,5,6)P4 inhibition of histamine-stimulated chloride ion secretion); experiment: Reversal of Bt2 -Ins(3,4,5,6)P4 /AM inhibition of histamine-stimulated chloride ion secretion in T84 cells; assay type: cell-based, human; settings: T84 cells, histamine-stimulated
Description: as §2, §3
T84 cells were preincubated with cell permeant inositol polyphosphates as described above to determine if any of the inositol polyphosphate derivatives function as antagonists of Ins(3,4,5,6)P4 inhibition of calcium-mediated chloride ion secretion. Following histamine stimulation, short circuit current was measured. […] The % control shown in FIG. 3 represents ΔIsc over peak Isc in control monolayers stimulated with histamine. However, […]

[4] = system: T84 cells (histamine-stimulated chloride ion secretion); experiment: Histamine-stimulated chloride ion secretion (short circuit current) in T84 monolayers; assay type: cell-based; settings: Homo sapiens, T84, 0.5 h; 800 μM compound alone; mean ± SEM; read-out: Peak ΔIsc (% Control) after histamine (100 μM)
[5] = system: T84 cells (Ins(3,4,5,6)P4 inhibition of histamine-stimulated chloride ion secretion); experiment: Reversal of Bt2 -Ins(3,4,5,6)P4 /AM inhibition of histamine-stimulated chloride ion secretion in T84 cells; assay type: cell-based, human; settings: 400 μM antagonist + 200 μM Bt2 Ins (3,4,5,6)P4 /AM; mean ± SEM; 30 min
[6] = system: T84 cells (cyclic AMP-mediated chloride ion secretion); experiment: Dibutyryl cyclic AMP acetoxymethyl ester stimulated chloride ion secretion in T84 cells; assay type: cell-based, human
Description: as §1, with “After an additional 30 min, 0.1 mM histamine was added and chloride ion secretion was monitored.” left out
[…]; mean±SEM; n=4).

[7] = system: rabbit colon (calcium-mediated chloride ion secretion); experiment: Chloride ion secretion in rabbit colonic epithelia (Ussing chambers)
Description: The results obtained above using T84 colonic epithelial cells in culture were confirmed using a rabbit colon model system (Frizzell et al., J. Membrane Biol. 27:297 (1976); and Frizell and Schultz, Int. Rev. Physiol. 19:205 (1979)), each of which is incorporated herein by reference. Segments of rabbit colon were excised and used as a source of rabbit colonic epithelia. Briefly, segments of rabbit colon were washed with Ringers solution containing 141 mM Na^+, 5 mM K^+, 1.2 mM Ca^2+, 1.2 mM Mg^2+, 122 mM Cl^-, 25 mM HCO3, 1.6 mM HPO4, 0.4 mM H2 PO4 and 10 mM glucose. At 37° C., this solution is pH 7.4 when gassed with 5% CO2 and 95% O2. Epithelium was stripped of the underlying muscle layer and mounted in modified SNAP WELLS (Frizzell et al., supra, 1976). Epithelia were preincubated with 200 μM 1,2-Bt2 -Ins(3,4,5,6)P4 /AM for 30 min at 37° C. and mounted in Ussing chambers. Short circuit current, conductance and resistance were measured at 4 sec intervals as described in Example I. Peak Isc was 50.9% ±10.4 of controls which were incubated with vehicle (FIG. 2; mean±SEM, n=3; p<0.05 by Student's two tailed t-test). The % control shown in FIG. 2 represents ΔIsc over peak Isc in control monolayers stimulated with histamine.

[8] = system: intracellular calcium; experiment: Intracellular calcium concentration in treated cells; assay type: cell-based, human
Description: Elevation in intracellular calcium concentration leads to increased chloride ion secretion. To ensure that none of the effects of the inositol polyphosphate derivatives on chloride ion secretion were due to changes in calcium levels, the concentration of intracellular calcium was measured in cells treated with the inositol polyphosphate derivatives. […] None of the compounds tested altered intracellular calcium levels by themselves or modified levels of intracellular calcium stimulated with carbachol or thapsigargin. Therefore, the effects of inositol polyphosphate derivatives on chloride ion secretion are not due to any effect on intracellular calcium concentrations.

[9] = system: Ins(1,3,4)P3-5/6-kinase; settings: Vajanaphanich et al. 1994; cited from earlier work
[10] = system: T84 cells (thapsigargin-stimulated chloride ion secretion); experiment: Thapsigargin-stimulated chloride ion secretion in T84 cells; assay type: cell-based, human; settings: carbachol 10^-4 M, thapsigargin 1 μM; FIG. 5A
Source text: Carbachol, a muscarinic cholinergic compound, also increases intracellular calcium ion concentration and stimulates chloride ion secretion with short term treatment. However, following long-term treatment of colonic epithelial T84 cells with carbachol, increased concentrations of intracellular calcium ions no longer stimulate chloride ion secretion (Kachintorn et al., Am. J. Physiol. Cell 264:C671 (1993)), which is incorporated herein by reference. […] Thus, Ins(3,4,5,6)P4 is an endogenous negative regulator of calcium-mediated chloride ion secretion because it uncouples chloride ion secretion from calcium ion concentration.
One set of cells was preincubated for 30 min with an inositol polyphosphate derivative. The other two sets of cells were preincubated with vehicle, alone. Measurement of Isc was initiated at time 0. At 5 min, carbachol (10^-4 M) was added to one set of cells preincubated with vehicle alone (designated "Carbachol" in FIG. 5) and to the set of cells preincubated with inositol polyphosphate derivatives (designated "Carbachol+D,L-1,2-Cyclohexylidene-Ins(3,4,5,6)P4 /AM" in FIG. 5A). At 30 min, 1 μM thapsigargin was added. Data were collected for n=4 to 6 experiments.

[11] = system: Ins(3,4,5,6)P4; settings: cited from earlier work
[12] = system: inositol 1 kinase; settings: in vitro; Tan et al.; cited from earlier work
[13] = system: T84 cells (histamine-stimulated chloride ion secretion); settings: equivalent to 200 μM extracellular concentration; Vajanaphanich et al.; cited from earlier work

With `CCCC(=O)O[C@@H]1[C@H](OC)[C@H](OP(=O)(OCOC(C)=O)OCOC(C)=O)[C@@H](OP(=O)(OCOC(C)=O)OCOC(C)=O)[C@H](OP(=O)(OCOC(C)=O)OCOC(C)=O)[C@H]1OP(=O)(OCOC(C)=O)OCOC(C)=O` (relative stereo) [D,L-1-Bt-2-Me-Ins(3,4,5,6)P4 /AM, D,L-1-O-butyryl-2-O-methyl-myo-inositol 3,4,5,6-TKphosphate oct (acetoxymethyl) ester] as the compound, how does the “Mechanism and Inositol Polyphosphate Pathway Affected” value [1] read?
Its value is “Agonist of”.

What about the “effect on histamine-stimulated / calcium-mediated chloride ion secretion (in words)” value [2] of the same compound?
Its value is “did not inhibit chloride ion secretion”.

What about the “reversal of the inhibitory effect of Bt2 -Ins(3,4,5,6)P4 /AM / Ins(3,4,5,6)P4-mediated inhibition (in words)” value [3] of the same compound?
Its value is “did not reverse the inhibition of Bt2 -Ins(1,4,5,6)P4 /AM”.

What about the activity at 800 µM [4] of the same compound?
The activity at 800 µM was 114 ± 23.7%.

What about the “Peak ΔIsc (% Control) after histamine (100 μM)” value [5] of the same compound?
The value was 96.7 ± 14.8 % Control.

Which results are given for `CCCC(=O)O[C@@H]1[C@H](OC(=O)CCC)[C@H](OP(=O)(OCOC(C)=O)OCOC(C)=O)[C@@H](OP(=O)(OCOC(C)=O)OCOC(C)=O)[C@H](OP(=O)(OCOC(C)=O)OCOC(C)=O)[C@H]1OP(=O)(OCOC(C)=O)OCOC(C)=O` [Bt2 -Ins(3,4,5,6)P4 /AM, 1,2-di-O-butyryl-myo-inositol 3,4,5,6-TKphosphate oct (acetoxymethyl) ester]?
Mechanism and Inositol Polyphosphate Pathway Affected [1]: Agonist of; activity at 100 µM ([2]; Homo sapiens, T84, 0.5 h, 100 μM compound, mean ± SEM, read-out: Peak ΔIsc (% Control) after histamine (100 μM)): 75.1 ± 7.4%; activity at 200 µM ([2]; Homo sapiens, T84, 0.5 h, 200 μM compound alone, mean ± SEM, read-out: Peak ΔIsc (% Control) after histamine (100 μM)): 57.2 ± 15.1%; activity at 400 µM ([2]; Homo sapiens, T84, 0.5 h, 400 μM compound alone, mean ± SEM, read-out: Peak ΔIsc (% Control) after histamine (100 μM)): 69.3 ± 8.7%; effect on histamine-stimulated / calcium-mediated chloride ion secretion (in words) [2]: inhibit calcium-mediated chloride secretion; also recorded: inhibited chloride ion secretion in response to increased concentrations of intracellular calcium; also recorded: decreased histamine-stimulated chloride ion secretion relative to control cells; concentration for maximum decrease of histamine-stimulated chloride ion secretion ([2]; extracellular, no further decrease with 400 μM): 200 µM; inhibition of dibutyryl cyclic AMP acetoxymethyl ester stimulated chloride ion secretion (in words) [6]: no inhibition; peak ΔIsc, dibutyryl cyclic AMP acetoxymethyl ester stimulated chloride ion secretion ([6]; mean±SEM, n=4): 96.3±9.1 % or control; effect on chloride ion secretion in rabbit colon (in words) ([7]; FIG. 2 / Example II): inhibition of chloride ion secretion; also recorded: decreases chloride ion secretion in rabbit colon; activity at 200 µM ([7]; Oryctolagus cuniculus, 0.5 h, 200 μM, 30 min at 37° C., mean±SEM, n=3, p<0.05, read-out: Peak Isc, of controls): 50.9%; effect on intracellular calcium (in words) ([8]; alone): does not increase intracellular calcium; effect on calcium response to thapsigargin or carbachol (in words) ([8]; thapsigargin or carbachol stimulated): does not affect calcium response to thapsigargin; effective intracellular concentration [9]: about 4 μM

With `C[N+](C)(C)CCOC(N)=O` [Carbachol] as the compound, how does the “effect of prolonged carbachol on thapsigargin-stimulated ΔIsc (in words)” value [10] read?
The value was “ΔIsc was attenuated”.

What about the “increase in Ins(3,4,5,6)P4 levels” value ([11]; background) of the same compound?
Its value is ≤ 20 -fold.

And the “rise of intracellular Ins(3,4,5,6)P4 levels (in words)” value ([11]; long-term treatment, Vajanaphanich et al.)?
Its value is “slow and prolonged rise of intracellular Ins(3,4,5,6)P4 levels”.

Which “effect on inositol 1 kinase (in words)” value [12] does the source give for `O=P(O)(O)O[C@H]1[C@H](O)[C@@H](O)[C@H](OP(=O)(O)O)[C@@H](OP(=O)(O)O)[C@H]1O` [Ins(1,3,4)P3] here?
The value was “inhibited inositol 1 kinase”.

With `O=P(O)(O)O[C@H]1[C@H](OP(=O)(O)O)[C@@H](OP(=O)(O)O)[C@@H](O)[C@@H](O)[C@@H]1OP(=O)(O)O` [Ins(3,4,5,6)P4, myo-inositol 3,4,5,6-tetrakisphosphate] as the compound, how does the “intracellular level corresponding to onset of maximum inhibition” value [13] read?
The value was ~4 µM.
